Reference: patent US20250084061A1, “SULFONYL FUNCTIONAL COMPOUND, METHODS AND USES THEREOF” (Hubei Biopesticide Engineering Research Centre, priority 2023, published 2025)
Read-outs that look alike come from different tables or passages of the source.

Columns and labels:
Thanatephorus cucumeris = experiment: Bactericidal (fungicidal) activity by microdilution; type: cell-based
Fusarium culmorum = experiment: as above; type: cell-based
Pythium aphanidermatum = experiment: as above; type: cell-based
[1] = tested on: Fusarium oxysporum f. sp. Niveum; experiment: as above; type: cell-based
Rhizoctonia solani = experiment: as above; type: cell-based
Botrytis cinerea = experiment: as above; type: cell-based
Aphiscraccivora = experiment: Insecticidal activity, dipping method; type: in vivo
Experimental: (§1) The insecticidal activity of sulfonyl functional compounds in the above embodiments were tested for agricultural biological functions, and the targets of insecticidal activity were Heliothis armigera, Plutella xylostella and Aphiscraccivora.
(§2) The insecticidal activity of sulfonyl functional compounds against Aphiscraccivora was tested by the method of dipping. Mother liquors were prepared by the sulfonyl functional compounds provided in the above embodiments dissolved in ethanol, respectively. 500 mg/L, 250 mg/L or 125 mg/L test solution could be prepared by diluting the different mother liquors with a liquor that contained 0.1 mL/L of emulgator (Tween-80). Every test solution was tested twice (Rep1 and Rep2). A blank control was set up, and the activity results were compared with the blank control. The mortality rate of 0˜30%, 30˜50%, 50-70%, 70˜90%, or 90˜100% could be orderly set as 0, 3, 5, 7, or 9.

[2] = tested on: Colletotrichum gloeobosporioids; experiment: Bactericidal (fungicidal) activity by microdilution; type: cell-based
[3] = tested on: Verticillium dahliae.kieb.; experiment: as above; type: cell-based
Septoria nodorum Berk. = experiment: as above; type: cell-based
Magnaporthe oryzae = type: cell-based
Heliothis armigera = experiment: Insecticidal activity, artificial feed surface coating method; type: in vivo; conditions: Helicoverpa armigera, read-out: Insecticidal activity (mortality rate grade) Heliothis armigera
Experimental: as §1
(§3) Using Heliothis armigera and Plutella xylostella as target, the insecticidal activities of sulfonyl functional compounds were tested by conventional artificial feed surface coating method. 300 microliters of artificial feed and 20 microliters of test solution were added to each well of the 24-well cell culture plate. The test solution was used in different concentrations and repeated twice (Rep1 and Rep2). The concentrations of the test solution were 500 mg/L, 250 mg/L and 125 mg/L, respectively.
as §2

Plutella xylostella = experiment: as above; type: in vivo; conditions: Plutella xylostella, read-out: Insecticidal activity (mortality rate grade) Plutella xylostella
Experimental: as §1, §3, §2

Alternaria kikuchiana = experiment: Bactericidal (fungicidal) activity by microdilution; type: cell-based
[4] = tested on: Corynespora leaf spot of tomato; experiment: as above; type: cell-based
Leptosphaeria biglobosa = experiment: as above; type: cell-based

COC(=O)Nc1nc2ccccc2n1CCCCS(=O)(=O)O [III-3]
Fungicidal activity (antibacterial rate grade) Thanatephorus cucumeris (Thanatephorus cucumeris; 12.5 mg/L): 9 (The antibacterial rate of 90˜100% could be set as 9 if the target has totally no growth)
Fungicidal activity (antibacterial rate grade) Thanatephorus cucumeris (Thanatephorus cucumeris; 25 mg/L): 9 (The antibacterial rate of 90˜100% could be set as 9 if the target has totally no growth)
Fungicidal activity (antibacterial rate grade) Thanatephorus cucumeris (Thanatephorus cucumeris; 50 mg/L): 9 (The antibacterial rate of 90˜100% could be set as 9 if the target has totally no growth)
Fungicidal activity (antibacterial rate grade) Thanatephorus cucumeris (Thanatephorus cucumeris; 100 mg/L): 9 (The antibacterial rate of 90˜100% could be set as 9 if the target has totally no growth)
Fungicidal activity (antibacterial rate grade) Fusarium culmorum (Fusarium culmorum; 12.5 mg/L): 7 (The antibacterial rate of 70˜90% could be set as 7 if the target has small amounts of growth)
Fungicidal activity (antibacterial rate grade) Fusarium culmorum (Fusarium culmorum; 25 mg/L): 9 (The antibacterial rate of 90˜100% could be set as 9 if the target has totally no growth)
Fungicidal activity (antibacterial rate grade) Fusarium culmorum (Fusarium culmorum; 50 mg/L): 9 (The antibacterial rate of 90˜100% could be set as 9 if the target has totally no growth)
Fungicidal activity (antibacterial rate grade) Fusarium culmorum (Fusarium culmorum; 100 mg/L): 9 (The antibacterial rate of 90˜100% could be set as 9 if the target has totally no growth)
Fungicidal activity (antibacterial rate grade) Pythium aphanidematum (Pythium aphanidermatum; 12.5 mg/L): 3 (The antibacterial rate of 0˜30% could be set as 3 if the growth of the target is normal and consistent with that of the blank control)
Fungicidal activity (antibacterial rate grade) Pythium aphanidematum (Pythium aphanidermatum; 25 mg/L): 3 (The antibacterial rate of 0˜30% could be set as 3 if the growth of the target is normal and consistent with that of the blank control)
Fungicidal activity (antibacterial rate grade) Pythium aphanidematum (Pythium aphanidermatum; 50 mg/L): 3 (The antibacterial rate of 0˜30% could be set as 3 if the growth of the target is normal and consistent with that of the blank control)
Fungicidal activity (antibacterial rate grade) Pythium aphanidematum (Pythium aphanidermatum; 100 mg/L): 3 (The antibacterial rate of 0˜30% could be set as 3 if the growth of the target is normal and consistent with that of the blank control)
Fungicidal activity (antibacterial rate grade) Fusarium oxysporum f. sp. Niveum ([1]; 12.5 mg/L): 9 (The antibacterial rate of 90˜100% could be set as 9 if the target has totally no growth)
Fungicidal activity (antibacterial rate grade) Fusarium oxysporum f. sp. Niveum ([1]; 25 mg/L): 9 (The antibacterial rate of 90˜100% could be set as 9 if the target has totally no growth)
Fungicidal activity (antibacterial rate grade) Fusarium oxysporum f. sp. Niveum ([1]; 50 mg/L): 9 (The antibacterial rate of 90˜100% could be set as 9 if the target has totally no growth)
Fungicidal activity (antibacterial rate grade) Fusarium oxysporum f. sp. Niveum ([1]; 100 mg/L): 9 (The antibacterial rate of 90˜100% could be set as 9 if the target has totally no growth)
Fungicidal activity (antibacterial rate grade) Rhizoctonia solani (Rhizoctonia solani; 12.5 mg/L): 3 (The antibacterial rate of 0˜30% could be set as 3 if the growth of the target is normal and consistent with that of the blank control)
Fungicidal activity (antibacterial rate grade) Rhizoctonia solani (Rhizoctonia solani; 25 mg/L): 3 (The antibacterial rate of 0˜30% could be set as 3 if the growth of the target is normal and consistent with that of the blank control)
Fungicidal activity (antibacterial rate grade) Rhizoctonia solani (Rhizoctonia solani; 50 mg/L): 3 (The antibacterial rate of 0˜30% could be set as 3 if the growth of the target is normal and consistent with that of the blank control)
Fungicidal activity (antibacterial rate grade) Rhizoctonia solani (Rhizoctonia solani; 100 mg/L): 3 (The antibacterial rate of 0˜30% could be set as 3 if the growth of the target is normal and consistent with that of the blank control)
Fungicidal activity (antibacterial rate grade) Botrytis cinerea (Botrytis cinerea; 12.5 mg/L): 3 (The antibacterial rate of 0˜30% could be set as 3 if the growth of the target is normal and consistent with that of the blank control)
Fungicidal activity (antibacterial rate grade) Botrytis cinerea (Botrytis cinerea; 25 mg/L): 3 (The antibacterial rate of 0˜30% could be set as 3 if the growth of the target is normal and consistent with that of the blank control)
Fungicidal activity (antibacterial rate grade) Botrytis cinerea (Botrytis cinerea; 50 mg/L): 3 (The antibacterial rate of 0˜30% could be set as 3 if the growth of the target is normal and consistent with that of the blank control)
Fungicidal activity (antibacterial rate grade) Botrytis cinerea (Botrytis cinerea; 100 mg/L): 3 (The antibacterial rate of 0˜30% could be set as 3 if the growth of the target is normal and consistent with that of the blank control)
Insecticidal activity (mortality rate grade) Aphiscraccivora (Aphiscraccivora; 125 mg/L test solution): 0 (mortality rate of 0˜30%)
Insecticidal activity (mortality rate grade) Aphiscraccivora (Aphiscraccivora; 250 mg/L test solution): 0 (mortality rate of 0˜30%)
Insecticidal activity (mortality rate grade) Aphiscraccivora (Aphiscraccivora; 500 mg/L test solution): 0 (mortality rate of 0˜30%)
Fungicidal activity (antibacterial rate grade) Colletotrichum gloeobosporioids ([2]; 12.5 mg/L): 9 (The antibacterial rate of 90˜100% could be set as 9 if the target has totally no growth)
Fungicidal activity (antibacterial rate grade) Colletotrichum gloeobosporioids ([2]; 25 mg/L): 9 (The antibacterial rate of 90˜100% could be set as 9 if the target has totally no growth)
Fungicidal activity (antibacterial rate grade) Colletotrichum gloeobosporioids ([2]; 50 mg/L): 9 (The antibacterial rate of 90˜100% could be set as 9 if the target has totally no growth)
Fungicidal activity (antibacterial rate grade) Colletotrichum gloeobosporioids ([2]; 100 mg/L): 9 (The antibacterial rate of 90˜100% could be set as 9 if the target has totally no growth)
Fungicidal activity (antibacterial rate grade) Verticillium dahliae. kieb. ([3]; 12.5 mg/L): 9 (The antibacterial rate of 90˜100% could be set as 9 if the target has totally no growth)
Fungicidal activity (antibacterial rate grade) Verticillium dahliae. kieb. ([3]; 25 mg/L): 9 (The antibacterial rate of 90˜100% could be set as 9 if the target has totally no growth)
Fungicidal activity (antibacterial rate grade) Verticillium dahliae. kieb. ([3]; 50 mg/L): 9 (The antibacterial rate of 90˜100% could be set as 9 if the target has totally no growth)
Fungicidal activity (antibacterial rate grade) Verticillium dahliae. kieb. ([3]; 100 mg/L): 9 (The antibacterial rate of 90˜100% could be set as 9 if the target has totally no growth)
Fungicidal activity (antibacterial rate grade) Septoria nodorum Berk. (Septoria nodorum Berk.; 12.5 mg/L): 9 (The antibacterial rate of 90˜100% could be set as 9 if the target has totally no growth)
Fungicidal activity (antibacterial rate grade) Septoria nodorum Berk. (Septoria nodorum Berk.; 25 mg/L): 9 (The antibacterial rate of 90˜100% could be set as 9 if the target has totally no growth)
Fungicidal activity (antibacterial rate grade) Septoria nodorum Berk. (Septoria nodorum Berk.; 50 mg/L): 9 (The antibacterial rate of 90˜100% could be set as 9 if the target has totally no growth)
Fungicidal activity (antibacterial rate grade) Septoria nodorum Berk. (Septoria nodorum Berk.; 100 mg/L): 9 (The antibacterial rate of 90˜100% could be set as 9 if the target has totally no growth)
Fungicidal activity (antibacterial rate grade) Magnaporthe oryzae (Magnaporthe oryzae; 12.5 mg/L): 9 (The antibacterial rate of 90˜100% could be set as 9 if the target has totally no growth)
Fungicidal activity (antibacterial rate grade) Magnaporthe oryzae (Magnaporthe oryzae; 25 mg/L): 9 (The antibacterial rate of 90˜100% could be set as 9 if the target has totally no growth)
Fungicidal activity (antibacterial rate grade) Magnaporthe oryzae (Magnaporthe oryzae; 50 mg/L): 9 (The antibacterial rate of 90˜100% could be set as 9 if the target has totally no growth)
Fungicidal activity (antibacterial rate grade) Magnaporthe oryzae (Magnaporthe oryzae; 100 mg/L): 9 (The antibacterial rate of 90˜100% could be set as 9 if the target has totally no growth)
mortality at 125 µg/mL (Heliothis armigera; 125 mg/L test solution): 0 to 30%
mortality at 250 µg/mL (Heliothis armigera; 250 mg/L test solution): 0 to 30%
mortality at 500 µg/mL (Heliothis armigera; 500 mg/L test solution): 0 to 30%
mortality at 125 µg/mL (Plutella xylostella; 125 mg/L test solution): 0 to 30%
mortality at 250 µg/mL (Plutella xylostella; 250 mg/L test solution): 0 to 30%
mortality at 500 µg/mL (Plutella xylostella; 500 mg/L test solution): 0 to 30%
Fungicidal activity (antibacterial rate grade) Alternaria kikuchiana (Alternaria kikuchiana; 12.5 mg/L): 3 (The antibacterial rate of 0˜30% could be set as 3 if the growth of the target is normal and consistent with that of the blank control)
Fungicidal activity (antibacterial rate grade) Alternaria kikuchiana (Alternaria kikuchiana; 25 mg/L): 3 (The antibacterial rate of 0˜30% could be set as 3 if the growth of the target is normal and consistent with that of the blank control)
Fungicidal activity (antibacterial rate grade) Alternaria kikuchiana (Alternaria kikuchiana; 50 mg/L): 3 (The antibacterial rate of 0˜30% could be set as 3 if the growth of the target is normal and consistent with that of the blank control)
Fungicidal activity (antibacterial rate grade) Alternaria kikuchiana (Alternaria kikuchiana; 100 mg/L): 3 (The antibacterial rate of 0˜30% could be set as 3 if the growth of the target is normal and consistent with that of the blank control)
Fungicidal activity (antibacterial rate grade) Corynespora leaf spot of tomato ([4]; 12.5 mg/L): 3 (The antibacterial rate of 0˜30% could be set as 3 if the growth of the target is normal and consistent with that of the blank control)
Fungicidal activity (antibacterial rate grade) Corynespora leaf spot of tomato ([4]; 25 mg/L): 3 (The antibacterial rate of 0˜30% could be set as 3 if the growth of the target is normal and consistent with that of the blank control)
Fungicidal activity (antibacterial rate grade) Corynespora leaf spot of tomato ([4]; 50 mg/L): 7 (The antibacterial rate of 70˜90% could be set as 7 if the target has small amounts of growth)
Fungicidal activity (antibacterial rate grade) Corynespora leaf spot of tomato ([4]; 100 mg/L): 7 (The antibacterial rate of 70˜90% could be set as 7 if the target has small amounts of growth)
Fungicidal activity (antibacterial rate grade) Leptosphaeria biglobosa (Leptosphaeria biglobosa; 12.5 mg/L): 9 (The antibacterial rate of 90˜100% could be set as 9 if the target has totally no growth)
Fungicidal activity (antibacterial rate grade) Leptosphaeria biglobosa (Leptosphaeria biglobosa; 25 mg/L): 9 (The antibacterial rate of 90˜100% could be set as 9 if the target has totally no growth)
Fungicidal activity (antibacterial rate grade) Leptosphaeria biglobosa (Leptosphaeria biglobosa; 50 mg/L): 9 (The antibacterial rate of 90˜100% could be set as 9 if the target has totally no growth)
Fungicidal activity (antibacterial rate grade) Leptosphaeria biglobosa (Leptosphaeria biglobosa; 100 mg/L): 9 (The antibacterial rate of 90˜100% could be set as 9 if the target has totally no growth)
